Data set [1] has as its system Staphylococcus aureus. Kind of data set: Antimicrobial activity against Staphylococcus aureus NCIM 5021 by broth dilution method. The data set is classed as functional.
Data set [2] concerns Candida albicans. In words: Antimicrobial activity against Candida albicans NCIM 3471 by broth dilution method. The data set is classed as functional. In general terms: Broth dilution looks for growth in wells or tubes with falling amounts of substance.
Data set [3] has as its system Mus musculus. Kind of data set: Antidepressant activity in Swiss albino mouse assessed as mean immobility time measured during last 4 mins of single 6 mins test session at 20 mg/kg, po by forced swim test (reference value: 75.33 +/- 3.35 secs). Format: functional.
The test system of data set [4] is Pseudomonas aeruginosa. Kind of data set: Antimicrobial activity against Pseudomonas aeruginosa NCIM 5029 at 100 ug/mL incubated for 24 hrs by agar disc diffusion method. Format: functional. The settings on record: NCIM 5029, 24 h, read-out: IZ. In general terms: A growth-free zone around the sample is the usual read-out of agar diffusion tests.
For data set [5], the system named is Escherichia coli. In words: Antimicrobial activity against Escherichia coli NCIM 2574 by broth dilution method. Format: functional.
Data set [6] has as its system Pseudomonas aeruginosa. In words: Antimicrobial activity against Pseudomonas aeruginosa NCIM 5029 by broth dilution method. Format: functional.
A short description of data set [7]: Antioxidant activity assessed as superoxide scavenging activity using xanthine-xanthine oxidase system by NBT dye reduction based assay. Format: functional.
In data set [8] the target is T1, Amine oxidase [flavin-containing] A (Mus musculus, UniProt Q64133).
T1 sequence (Q64133 whole entry): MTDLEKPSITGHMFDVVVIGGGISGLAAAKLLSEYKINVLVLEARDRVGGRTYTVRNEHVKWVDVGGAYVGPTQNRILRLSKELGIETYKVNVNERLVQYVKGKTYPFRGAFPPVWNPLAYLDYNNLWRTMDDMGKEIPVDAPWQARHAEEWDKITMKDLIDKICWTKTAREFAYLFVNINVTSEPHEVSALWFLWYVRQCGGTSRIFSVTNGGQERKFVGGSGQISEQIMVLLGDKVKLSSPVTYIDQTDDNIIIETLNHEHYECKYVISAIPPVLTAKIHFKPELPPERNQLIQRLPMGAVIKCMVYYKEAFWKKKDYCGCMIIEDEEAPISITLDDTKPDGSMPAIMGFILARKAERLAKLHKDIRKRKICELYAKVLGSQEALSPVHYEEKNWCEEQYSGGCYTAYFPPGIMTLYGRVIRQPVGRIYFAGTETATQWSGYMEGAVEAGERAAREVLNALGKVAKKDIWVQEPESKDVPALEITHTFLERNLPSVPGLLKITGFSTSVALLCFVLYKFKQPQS
In words: Inhibition of MAOA in mouse brain mitochondrial fraction assessed as enzyme activity per mg of protein using 5-HT substrate incubated for 20 mins by UV-spectrophotometry. Format: tissue-based.

Data set [9] deals with Staphylococcus aureus. Kind of data set: Antimicrobial activity against Staphylococcus aureus NCIM 5021 at 100 ug/mL incubated for 24 hrs by agar disc diffusion method. Format: functional. The settings on record: NCIM 5021, 24 h, read-out: IZ.
Data set [10] concerns Aspergillus flavus. Kind of data set: Antimicrobial activity against Aspergillus flavus NCIM 524 by broth dilution method. Format: functional.
For data set [11], the system named is Mus musculus. Kind of data set: Antidepressant activity in Swiss albino mouse assessed as mean immobility time measured during 6 mins period at 20 mg/kg, po administered 30 mins before test by tail suspension test (reference value: 185.7 +/- 5.33 secs). Format: functional.
Data set [12] deals with Candida albicans. Kind of data set: Antimicrobial activity against Candida albicans NCIM 3471 at 100 ug/mL incubated for 48 hrs by agar disc diffusion method. Format: functional. The settings on record: NCIM 3471, 48 h, read-out: IZ.
Data set [13] concerns Radical scavenging activity. Kind of data set: Antioxidant activity assessed as DPPH free radical scavenging activity by spectrophotometry. The data set is classed as functional.
In data set [14] the test system is Escherichia coli. Kind of data set: Antimicrobial activity against Escherichia coli NCIM 2574 at 100 ug/mL incubated for 24 hrs by agar disc diffusion method. The data set is classed as functional. The settings on record: NCIM 2574, 24 h, read-out: IZ.
Data set [15] concerns Bacillus subtilis. In words: Antimicrobial activity against Bacillus subtilis NCIM 2999 by broth dilution method. Format: functional.
Data set [16] has as its system Bacillus subtilis. Kind of data set: Antimicrobial activity against Bacillus subtilis NCIM 2999 at 100 ug/mL incubated for 24 hrs by agar disc diffusion method. The data set is classed as functional. The settings on record: NCIM 2999, 24 h, read-out: IZ.
In data set [17] the test system is Aspergillus flavus. Kind of data set: Antimicrobial activity against Aspergillus flavus NCIM 524 at 100 ug/mL incubated for 48 hrs by agar disc diffusion method. The settings on record: NCIM 524, 48 h, read-out: IZ. The data set is classed as functional.
Data set [18] deals with T2, Amine oxidase [flavin-containing] B (Mus musculus, UniProt Q8BW75).
T2 sequence (Q8BW75 whole entry): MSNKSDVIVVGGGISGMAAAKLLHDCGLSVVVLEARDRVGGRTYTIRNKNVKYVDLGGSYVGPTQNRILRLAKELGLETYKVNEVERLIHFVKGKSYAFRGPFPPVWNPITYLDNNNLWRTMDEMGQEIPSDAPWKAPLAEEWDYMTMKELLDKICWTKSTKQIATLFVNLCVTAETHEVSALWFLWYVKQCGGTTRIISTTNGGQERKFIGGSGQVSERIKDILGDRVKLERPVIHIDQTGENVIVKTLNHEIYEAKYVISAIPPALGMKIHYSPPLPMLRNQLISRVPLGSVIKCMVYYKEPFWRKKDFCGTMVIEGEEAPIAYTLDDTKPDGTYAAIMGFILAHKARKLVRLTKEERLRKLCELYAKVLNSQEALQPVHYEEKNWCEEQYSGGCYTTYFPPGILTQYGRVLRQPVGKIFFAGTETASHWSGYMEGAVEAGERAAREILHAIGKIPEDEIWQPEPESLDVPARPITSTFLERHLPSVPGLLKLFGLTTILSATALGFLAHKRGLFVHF
In words: Inhibition of MAOB in mouse brain mitochondrial fraction assessed as enzyme activity per mg of protein using beta-PEA substrate incubated for 20 mins by UV-spectrophotometry. The data set is classed as tissue-based.

The test system of data set [19] is Aspergillus flavus. In words: Antimicrobial activity against Aspergillus flavus NCIM 524 at 10 ug/disc incubated for 48 hrs by agar disc diffusion method. The settings on record: NCIM 524, 48 h. Format: functional.
Data set [20] concerns Candida albicans. Kind of data set: Antimicrobial activity against Candida albicans NCIM 3471 at 10 ug/disc incubated for 48 hrs by agar disc diffusion method. The data set is classed as functional. The settings on record: NCIM 3471, 48 h, read-out: IZ.
The subject of data set [21] is Staphylococcus aureus. Kind of data set: Antimicrobial activity against Staphylococcus aureus NCIM 5021 at 10 ug/disc incubated for 24 hrs by agar disc diffusion method. The data set is classed as functional. The settings on record: NCIM 5021, 24 h, read-out: IZ.
Data set [22] deals with Pseudomonas aeruginosa. In words: Antimicrobial activity against Pseudomonas aeruginosa NCIM 5029 at 10 ug/disc incubated for 24 hrs by agar disc diffusion method. The data set is classed as functional. The settings on record: NCIM 5029, 24 h, read-out: IZ.
In data set [23] the test system is Escherichia coli. Kind of data set: Antimicrobial activity against Escherichia coli NCIM 2574 at 10 ug/disc incubated for 24 hrs by agar disc diffusion method. The data set is classed as functional. The settings on record: NCIM 2574, 24 h, read-out: IZ.
The subject of data set [24] is Bacillus subtilis. In words: Antimicrobial activity against Bacillus subtilis NCIM 2999 at 10 ug/disc incubated for 24 hrs by agar disc diffusion method. The settings on record: NCIM 2999, 24 h, read-out: IZ. Format: functional.

Molecules are shown by their SMILES. Values after ≈ are worked out from the molar mass of the structure shown. Where only a bound is given, the exact number is not on record here.

Broadly, the MIC is the lowest concentration found to suppress growth. Read a low MIC as greater potency. By IC50 is commonly meant the midpoint of a concentration-inhibition curve. On to `COc1cc(/C=C/C(=O)N2CCCCC2)cc2c1OCO2`, for which the MIC was 24 µg/mL (≈ 82.9 µM) in the data set with Staphylococcus aureus [1]; 28 µg/mL (≈ 96.8 µM) in the data set with Candida albicans [2]; 30 µg/mL (≈ 104 µM) against Escherichia coli [5]; 30 µg/mL (≈ 104 µM) against Pseudomonas aeruginosa [6]; 30 µg/mL (≈ 104 µM) against Aspergillus flavus [10]; 26 µg/mL (≈ 89.9 µM) in the data set with Bacillus subtilis [15]. For the same molecule, the Time amounted to 32.15 s in the data set with Mus musculus [3] and 78.18 s in the data set with Mus musculus [11]. Moreover, the zone of inhibition at 100 µg/mL with Pseudomonas aeruginosa [4] was 16 mm; in the data set on Staphylococcus aureus [9] it was 10 mm; in the data set with Candida albicans [12], 12.5 mm; in the data set with Escherichia coli [14], 15 mm; in the data set on Bacillus subtilis [16], 13 mm; with Aspergillus flavus [17], 11 mm. Moreover, the IC50 in data set [7] stood at 18.2 µg/mL (≈ 62.9 µM); in [13] it was 14.9 µg/mL (≈ 51.5 µM). Also, the Activity in [8] is listed as 17.09 nmol; in data set [18], 18.01 nmol.

With `COc1cc(/C=C/C(=O)N2CCC(O)CC2)cc2c1OCO2`, the MIC against Staphylococcus aureus [1] is 50 µg/mL (≈ 164 µM); against Candida albicans [2] it was 100 µg/mL (≈ 328 µM); in the data set with Escherichia coli [5], > 100 µg/mL; against Pseudomonas aeruginosa [6], > 100 µg/mL; against Aspergillus flavus [10] it was 90 µg/mL (≈ 295 µM); in the data set with Bacillus subtilis [15], 50 µg/mL (≈ 164 µM). Besides, the Time was 30.8 s with Mus musculus [3] and 76.18 s in the data set with Mus musculus [11]. Moreover, the zone of inhibition at 100 µg/mL with Pseudomonas aeruginosa [4] turned out to be 11 mm; in the data set on Staphylococcus aureus [9] it was 10 mm; in the data set with Candida albicans [12], 14 mm; in the data set with Escherichia coli [14] it was 11 mm; with Bacillus subtilis [16], 7 mm; with Aspergillus flavus [17], 10.2 mm. Also, the IC50 in data set [7] amounted to 12.8 µg/mL (≈ 41.9 µM); in [13] it was 8.3 µg/mL (≈ 27.2 µM). The Activity was found to be 14.46 nmol in data set [8] and 15.72 nmol in data set [18].

As to `OC(Cn1cncn1)(Cn1cncn1)c1ccc(F)cc1F` [FLUCONAZOLE], the MIC against Candida albicans [2] and in the data set with Aspergillus flavus [19] was 5 µg/mL (≈ 16.3 µM) throughout. The zone of inhibition at 10 µg/disc in the data set with Candida albicans [20] came to 16 mm. The zone of inhibition at 100 µg/mL with Aspergillus flavus [17] stood at 19 mm.

For the molecule `CN[C@@H]1[C@H](O[C@H]2[C@H](O[C@H]3[C@H](O)[C@@H](O)[C@H](N=C(N)N)[C@@H](O)[C@@H]3N=C(N)N)O[C@@H](C)[C@]2(O)C=O)O[C@@H](CO)[C@H](O)[C@H]1O` [STREPTOMYCIN], the MIC in the data set on Staphylococcus aureus [1], against Escherichia coli [5], with Pseudomonas aeruginosa [6] and against Bacillus subtilis [15] was 5 µg/mL (≈ 8.6 µM) in each case. Moreover, the zone of inhibition at 10 µg/disc in the data set on Staphylococcus aureus [21] was found to be 11.6 mm; with Pseudomonas aeruginosa [22], 14 mm; in the data set with Escherichia coli [23], 14.5 mm; in the data set with Bacillus subtilis [24], 10.4 mm.

For the origin of these results see ChEMBL document CHEMBL2203030, “Synthesis, characterization, antidepressant and antioxidant activity of novel piperamides bearing piperidine and piperazine analogues” (Bioorg Med Chem Lett, 2012).
